Assays:
Metabolic stability test = type: in vitro ADME; conditions: human liver microsomes 0.5 mg protein/mL, NADPH, 37° C.
Method: Using a commercially available pooled human liver microsomes, a compound of the present invention was reacted for a constant time, a remaining rate was calculated by comparing a reacted sample and an unreacted sample, thereby, a degree of metabolism in liver was assessed.
A reaction was performed (oxidative reaction) at 37° C. for 0 minute or 30 minutes in the presence of 1 mmol/L NADPH in 0.2 mL of a buffer (50 mmol/L Tris-HCl pH 7.4, 150 mmol/L potassium chloride, 10 mmol/L magnesium chloride) containing 0.5 mg protein/mL of human liver microsomes. After the reaction, 50 μL of the reaction solution was added to 100 μL of a methanol/acetonitrile=1/1 (v/v), mixed and centrifuged at 3000 rpm for 15 minutes. The compound of the present invention in the supernatant was quantified by LC/MS/MS or solid phase extraction (SPE)/MS, and a remaining amount of the compound of the present invention after the reaction was calculated, letting a compound amount at 0 minute reaction time to be 100%.

[1] = biological target: T1, recombinant BACE2 protein (Homo sapiens, UniProt Q9Y5Z0); test: BACE2 biochemical FRET based assay; conditions: pH 5.0, 450 min at room temperature
T1 construct: recombinant BACE2 protein in a final concentration of 0.4 μg/mL
T1 sequence (Q9Y5Z0 63-518): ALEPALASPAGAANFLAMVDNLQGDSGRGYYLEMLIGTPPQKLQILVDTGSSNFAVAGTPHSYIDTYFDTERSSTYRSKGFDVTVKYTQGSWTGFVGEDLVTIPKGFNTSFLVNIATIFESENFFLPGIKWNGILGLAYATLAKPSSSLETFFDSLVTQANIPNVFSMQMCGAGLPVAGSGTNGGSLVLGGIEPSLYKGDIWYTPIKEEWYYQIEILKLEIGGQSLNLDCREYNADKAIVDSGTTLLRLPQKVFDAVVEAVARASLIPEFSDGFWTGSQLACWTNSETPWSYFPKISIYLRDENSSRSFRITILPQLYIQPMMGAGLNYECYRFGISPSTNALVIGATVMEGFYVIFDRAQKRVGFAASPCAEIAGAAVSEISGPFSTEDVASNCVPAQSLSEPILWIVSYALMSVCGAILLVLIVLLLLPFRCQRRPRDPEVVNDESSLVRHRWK
Excerpt: (§1) This assay is a Fluorescence Resonance Energy Transfer Assay (FRET) based assay. The substrate for this assay contains the ‘Swedish’ Lys-Met/Asn-Leu mutation of the amyloid precursor protein (APP) beta-secretase cleavage site. This substrate also contains two fluorophores: (7-methoxycoumarin-4-yl) acetic acid (Mca) is a fluorescent donor with excitation wavelength at 320 nm and emission at 405 nm and 2,4-dinitrophenol (Dnp) is a proprietary quencher acceptor. […] Upon cleavage by the beta-secretase, the fluorophore Mca is separated from the quenching group Dnp, restoring the full fluorescence yield of the donor. The increase in fluorescence is linearly related to the rate of proteolysis.
Briefly in a 384-well format recombinant BACE2 protein in a final concentration of 0.4 μg/mL was incubated for 450 minutes at room temperature with 10 μM substrate in incubation buffer (final concentrations: 33.3 mM Citrate buffer pH 5.0, 0.033% PEG, 2% DMSO) in the absence or presence of compound. Next the amount of proteolysis was directly measured by fluorescence measurement at T=0 and T=450 (excitation at 320 nm and emission at 405 nm). Results were expressed in RFU (Relative Fluorescence Units), as difference between T450 and T0.
(§2) A best-fit curve was fitted by a minimum sum of squares method to the plot of % Controlmin versus compound concentration. From this an IC50 value (inhibitory concentration causing 50% inhibition of activity) can be obtained.

[2] = biological target: T2, human ether-a-go-go related gene (hERG) channel (Homo sapiens, UniProt Q12809); test: hERG test (whole cell patch clamp, QPatch); type: cell-based; conditions: CHO cells expressing hERG, tail peak current
T2 construct: expressed in transfected cells; host or cells: CHO cells
Excerpt: For the purpose of assessing risk of an electrocardiogram QT interval prolongation, effects on delayed rectifier K+ current (IKr), which plays an important role in the ventricular repolarization process of the compound of the present invention, was studied using CHO cells expressing human ether-a-go-go related gene (hERG) channel.
A cell was retained at a membrane potential of −80 mV by whole cell patch clamp method using an automated patch clamp system (QPatch; Sophion Bioscience A/S). After application of leak potential at −50 mV, IKr induced by depolarization pulse stimulation at +20 mV for 2 seconds and, further, repolarization pulse stimulation at −50 mV for 2 seconds was recorded.
After the generated current was stabilized, extracellular solution (NaCl: 145 mmol/L, KCl: 4 mmol/L, CaCl2:2 mmol/L MgCl2:1 mmol/L, 1 mmol/L, HEPES (4-(2-hydroxyethyl)-1-piperazineethanesulfonic acid: 10 mmol/L, glucose:10 mmol/L pH=7.4) in which the compound of the present invention have been dissolved at an objective concentration was applied to the cell under the room temperature condition for 10 minutes. From the recording IKr, an absolute value of the tail peak current was measured based on the current value at the resting membrane potential using an analysis software (QPatch assay software; Sophion Bioscience A/S). Further, the % inhibition relative to the tail peak current before application of the compound of the present invention was calculated, and compared with the vehicle-applied group (0.1% dimethyl sulfoxide solution) to assess influence of the compound of the present invention on IKr.

[3] = biological target: T3, recombinant BACE1 protein (Homo sapiens, UniProt P56817); test: BACE1 biochemical FRET based assay; conditions: for Selectivity: BACE2 IC50 relative to BACE1 IC50; for IC50: FRET, pH 5.0, 450 min at room temperature
T3 construct: recombinant BACE1 protein in a final concentration of 0.04 μg/mL
Excerpt: as §1, with “this assay is an APP derived 13 amino acids peptide that contains the” for “this assay contains the”, “protein (APP) beta-site secretase cleavage site.” for “protein (APP) beta-secretase cleavage site.”, “cleavage by BACE1, the fluorophore” for “cleavage by the beta-secretase, the fluorophore”
Briefly in a 384-well format recombinant BACE1 protein in a final concentration of 0.04 μg/mL was incubated for 450 minutes at room temperature with 10 μm substrate in incubation buffer (final concentrations: 33.3 mM Citrate buffer pH 5.0, 0.033% PEG, 3% DMSO) in the absence or presence of compound. Next the amount of proteolysis was directly measured by fluorescence measurement at T=0′-120′ and T=450′ (excitation at 320 nm and emission at 405 nm). Results were expressed in RFU (Relative Fluorescence Units), as difference between T450 and Tx (Tx is chosen depending on the reaction speed between 0 and 120 minutes).
as §2

T3 sequence (P56817 46-501): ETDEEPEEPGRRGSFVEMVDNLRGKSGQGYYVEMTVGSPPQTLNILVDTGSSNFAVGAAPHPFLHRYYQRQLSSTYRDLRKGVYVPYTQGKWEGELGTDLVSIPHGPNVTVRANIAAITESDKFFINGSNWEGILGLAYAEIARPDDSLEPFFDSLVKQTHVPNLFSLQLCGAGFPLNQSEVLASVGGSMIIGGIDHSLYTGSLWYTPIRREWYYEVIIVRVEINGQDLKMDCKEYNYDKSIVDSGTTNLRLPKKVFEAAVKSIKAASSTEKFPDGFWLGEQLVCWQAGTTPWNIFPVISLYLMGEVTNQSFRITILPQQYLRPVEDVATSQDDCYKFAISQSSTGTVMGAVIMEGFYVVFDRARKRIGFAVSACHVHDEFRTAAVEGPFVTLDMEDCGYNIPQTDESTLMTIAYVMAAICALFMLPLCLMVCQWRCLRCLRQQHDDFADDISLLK
T2 sequence (Q12809 whole entry): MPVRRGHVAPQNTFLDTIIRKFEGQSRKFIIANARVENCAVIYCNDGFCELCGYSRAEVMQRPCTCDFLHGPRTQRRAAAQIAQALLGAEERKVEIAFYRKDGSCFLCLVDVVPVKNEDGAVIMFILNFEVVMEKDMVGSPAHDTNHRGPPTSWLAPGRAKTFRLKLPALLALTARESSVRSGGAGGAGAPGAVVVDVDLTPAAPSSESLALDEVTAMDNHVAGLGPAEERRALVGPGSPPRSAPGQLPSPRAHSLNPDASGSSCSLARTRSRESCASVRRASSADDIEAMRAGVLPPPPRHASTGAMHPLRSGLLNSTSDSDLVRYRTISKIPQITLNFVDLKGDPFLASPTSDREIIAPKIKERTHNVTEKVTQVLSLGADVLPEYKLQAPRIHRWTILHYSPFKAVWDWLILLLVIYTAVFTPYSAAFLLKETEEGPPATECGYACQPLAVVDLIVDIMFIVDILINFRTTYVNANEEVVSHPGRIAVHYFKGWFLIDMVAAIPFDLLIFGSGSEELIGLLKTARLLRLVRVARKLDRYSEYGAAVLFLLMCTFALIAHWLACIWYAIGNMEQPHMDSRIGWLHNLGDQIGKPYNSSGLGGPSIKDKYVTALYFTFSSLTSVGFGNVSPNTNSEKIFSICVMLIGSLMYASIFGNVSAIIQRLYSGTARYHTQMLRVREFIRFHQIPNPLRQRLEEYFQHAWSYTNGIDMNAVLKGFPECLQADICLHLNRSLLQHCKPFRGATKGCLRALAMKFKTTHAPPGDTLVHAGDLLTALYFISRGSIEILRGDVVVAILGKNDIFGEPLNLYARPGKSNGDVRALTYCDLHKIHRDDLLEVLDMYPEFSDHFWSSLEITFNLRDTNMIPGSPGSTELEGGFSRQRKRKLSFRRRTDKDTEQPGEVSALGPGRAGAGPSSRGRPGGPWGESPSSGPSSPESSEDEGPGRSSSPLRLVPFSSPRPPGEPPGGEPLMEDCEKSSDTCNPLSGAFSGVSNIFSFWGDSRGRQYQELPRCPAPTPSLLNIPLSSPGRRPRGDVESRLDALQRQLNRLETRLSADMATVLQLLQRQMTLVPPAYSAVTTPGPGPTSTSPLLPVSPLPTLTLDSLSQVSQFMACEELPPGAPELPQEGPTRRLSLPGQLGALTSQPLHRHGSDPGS

| Remaining rate (%) at 30 min (Metabolic stability test) [%] | IC50 [1] [µM] | Selectivity [3] | IC50 [3] [µM] | Compound | hERG inhibition (%) at 3 μM [2] [%] |
| --- | --- | --- | --- | --- | --- |
| 92 | 0.309 | 28 | 0.011 | C[C@@H]1OC[C@H]2[C@@H]1OC(N)=N[C@]2(CF)c1cc(NC(=O)c2cnc(OCF)cn2)ccc1F [Compound I-082] | 6.7 |
| 92 | 0.389 | 31 | 0.013 | NC1=N[C@](CF)(c2cc(NC(=O)c3cnc(OCF)cn3)ccc2F)[C@H]2[C@H](CC(F)F)OC[C@H]2O1 [Compound I-116] | 33.9 |

Source: patent US20210261569A1, “FUSED HETEROCYCLIC DERIVATIVES HAVING SELECTIVE BACE1 INHIBITORY ACTIVITY” (Shionogi & Co., Ltd., priority 2018, published 2021)
